Results published in patent US20230117470A1, “SUBSTITUTED PYRAZOLE COMPOUNDS AS TOLL RECEPTOR INHIBITORS” (BRISTOL-MYERS SQUIBB COMPANY, priority 2019, published 2023).

Legend:
Format in all cases: cell-based
[1] = target: T1, human TLR8 (Homo sapiens, UniProt Q9NR97); assay: TLR8 inhibition reporter assay (HEK-Blue cells, SEAP reporter, R848 stimulation); conditions: HEK-Blue cells overexpressing human TLR8, SEAP reporter, R848 15.9 μM
T1 construct: host or cells: HEK-Blue cells
T1 sequence (Q9NR97 27-1041): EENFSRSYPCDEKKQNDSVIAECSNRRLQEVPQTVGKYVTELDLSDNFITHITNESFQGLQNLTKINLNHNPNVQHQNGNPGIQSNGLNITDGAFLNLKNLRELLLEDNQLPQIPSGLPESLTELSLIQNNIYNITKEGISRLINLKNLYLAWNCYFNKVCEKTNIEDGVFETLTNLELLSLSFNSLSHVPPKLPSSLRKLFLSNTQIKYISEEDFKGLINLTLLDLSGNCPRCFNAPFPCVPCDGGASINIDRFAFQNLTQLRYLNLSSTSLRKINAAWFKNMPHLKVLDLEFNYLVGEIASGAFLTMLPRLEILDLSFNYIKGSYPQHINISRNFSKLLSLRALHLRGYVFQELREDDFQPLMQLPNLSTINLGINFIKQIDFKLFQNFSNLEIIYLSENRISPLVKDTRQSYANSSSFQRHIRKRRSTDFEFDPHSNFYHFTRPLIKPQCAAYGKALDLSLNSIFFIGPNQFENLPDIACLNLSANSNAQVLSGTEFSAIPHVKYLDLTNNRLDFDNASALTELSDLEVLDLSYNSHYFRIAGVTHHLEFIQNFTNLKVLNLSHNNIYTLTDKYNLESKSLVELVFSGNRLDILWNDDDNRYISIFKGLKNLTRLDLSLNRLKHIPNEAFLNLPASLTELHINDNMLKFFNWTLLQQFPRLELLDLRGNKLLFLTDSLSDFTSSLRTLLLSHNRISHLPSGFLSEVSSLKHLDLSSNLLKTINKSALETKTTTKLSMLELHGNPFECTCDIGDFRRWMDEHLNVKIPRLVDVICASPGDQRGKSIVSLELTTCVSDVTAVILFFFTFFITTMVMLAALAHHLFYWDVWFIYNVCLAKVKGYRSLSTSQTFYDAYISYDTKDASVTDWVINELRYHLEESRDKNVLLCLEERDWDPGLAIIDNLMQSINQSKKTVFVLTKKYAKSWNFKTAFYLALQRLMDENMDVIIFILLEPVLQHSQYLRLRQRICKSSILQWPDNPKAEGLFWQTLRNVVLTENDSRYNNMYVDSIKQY
Summary of the method: (§1)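 30 min RT cpd pre-incubation (0.05 nM–50 μM final dose response) → agonist: gardiquimod 7.5 μM / R848 15.9 μM / ODN2006 5 nM for TLR7/8/9 resp. → 22 h, 37° C → SEAP via detection medium. % inhibition vs agonist+DMSO and reference inhibitor controls.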

[2] = target: T2, human TLR7 (Homo sapiens, UniProt Q9NYK1); assay: TLR7 inhibition reporter assay (HEK-Blue cells, SEAP reporter, gardiquimod stimulation); conditions: HEK-Blue cells overexpressing human TLR7, SEAP reporter, gardiquimod 7.5 μM
T2 construct: host or cells: HEK-Blue cells
T2 sequence (Q9NYK1 27-1049): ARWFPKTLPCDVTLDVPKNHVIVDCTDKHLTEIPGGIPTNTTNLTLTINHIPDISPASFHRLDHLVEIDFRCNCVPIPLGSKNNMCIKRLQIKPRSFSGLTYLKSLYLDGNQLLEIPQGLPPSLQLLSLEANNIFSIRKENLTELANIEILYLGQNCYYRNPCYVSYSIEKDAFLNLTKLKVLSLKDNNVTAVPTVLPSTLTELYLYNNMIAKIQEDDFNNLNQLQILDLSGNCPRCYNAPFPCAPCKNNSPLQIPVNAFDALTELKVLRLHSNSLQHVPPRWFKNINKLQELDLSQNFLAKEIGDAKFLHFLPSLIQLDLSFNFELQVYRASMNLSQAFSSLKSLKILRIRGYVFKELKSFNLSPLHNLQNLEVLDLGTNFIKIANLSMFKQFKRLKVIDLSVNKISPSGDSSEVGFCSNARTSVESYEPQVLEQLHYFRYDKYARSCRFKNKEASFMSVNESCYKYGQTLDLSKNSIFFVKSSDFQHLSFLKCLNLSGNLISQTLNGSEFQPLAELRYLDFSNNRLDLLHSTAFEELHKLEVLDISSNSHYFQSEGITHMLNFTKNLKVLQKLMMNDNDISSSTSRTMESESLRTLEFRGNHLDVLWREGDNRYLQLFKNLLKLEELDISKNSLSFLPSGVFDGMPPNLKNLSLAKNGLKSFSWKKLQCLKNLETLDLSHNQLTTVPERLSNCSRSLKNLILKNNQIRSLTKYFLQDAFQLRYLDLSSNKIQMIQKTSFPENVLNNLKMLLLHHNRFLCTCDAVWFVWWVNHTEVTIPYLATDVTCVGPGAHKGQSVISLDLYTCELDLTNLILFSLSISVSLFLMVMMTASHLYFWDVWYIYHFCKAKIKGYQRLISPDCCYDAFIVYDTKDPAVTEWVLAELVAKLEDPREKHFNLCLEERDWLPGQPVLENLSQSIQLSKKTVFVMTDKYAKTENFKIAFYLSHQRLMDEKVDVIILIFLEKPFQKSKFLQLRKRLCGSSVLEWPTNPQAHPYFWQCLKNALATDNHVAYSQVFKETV
Summary of the method: as §1

[3] = target: T3, human TLR9 (Homo sapiens, UniProt Q9NR96); assay: TLR9 inhibition reporter assay (HEK-Blue cells, SEAP reporter, ODN2006 stimulation); conditions: HEK-Blue cells overexpressing human TLR9, SEAP reporter, ODN2006 5 nM
T3 construct: host or cells: HEK-Blue cells
T3 sequence (Q9NR96 26-1032): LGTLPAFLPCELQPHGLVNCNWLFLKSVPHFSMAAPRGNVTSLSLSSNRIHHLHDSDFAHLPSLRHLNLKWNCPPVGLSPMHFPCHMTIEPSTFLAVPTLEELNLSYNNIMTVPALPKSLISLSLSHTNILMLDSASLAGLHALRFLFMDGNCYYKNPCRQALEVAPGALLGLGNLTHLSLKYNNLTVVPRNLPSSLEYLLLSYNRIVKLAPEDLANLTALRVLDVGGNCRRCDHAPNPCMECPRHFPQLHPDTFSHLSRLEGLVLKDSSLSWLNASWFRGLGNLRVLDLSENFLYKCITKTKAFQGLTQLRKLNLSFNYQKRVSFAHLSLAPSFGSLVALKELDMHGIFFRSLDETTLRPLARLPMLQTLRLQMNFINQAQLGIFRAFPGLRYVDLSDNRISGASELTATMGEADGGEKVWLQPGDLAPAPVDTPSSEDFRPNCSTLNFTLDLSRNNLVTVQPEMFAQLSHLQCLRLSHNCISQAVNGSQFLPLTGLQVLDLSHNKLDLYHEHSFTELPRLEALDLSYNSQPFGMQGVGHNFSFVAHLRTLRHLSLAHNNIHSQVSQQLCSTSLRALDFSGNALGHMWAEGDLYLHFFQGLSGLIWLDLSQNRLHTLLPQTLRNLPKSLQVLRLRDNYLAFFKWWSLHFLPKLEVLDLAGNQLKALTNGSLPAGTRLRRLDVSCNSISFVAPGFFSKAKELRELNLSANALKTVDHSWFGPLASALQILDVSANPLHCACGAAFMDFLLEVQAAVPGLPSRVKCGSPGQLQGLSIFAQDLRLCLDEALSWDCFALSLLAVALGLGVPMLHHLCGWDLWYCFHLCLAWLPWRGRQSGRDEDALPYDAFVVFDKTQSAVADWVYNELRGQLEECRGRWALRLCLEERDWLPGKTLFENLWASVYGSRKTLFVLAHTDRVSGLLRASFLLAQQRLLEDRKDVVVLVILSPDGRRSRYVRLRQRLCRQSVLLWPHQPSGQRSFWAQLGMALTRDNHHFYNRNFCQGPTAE
Summary of the method: as §1

Cc1cc(-c2[nH]nc(C(=O)NC3CCN(CCC(F)(F)F)CC3)c2C(C)C)cn2ncnc12 [Example 69, 4-isopropyl-5-(8-methyl-[1,2,4]triazolo[1,5-a]pyridin-6-yl)-N-(1-(3,3,3-trifluoropropyl)piperidin-4-yl)-1H-pyrazole-3-carboxamide]
IC50 [1]: 35.6 nM
IC50 [2]: 4.17 nM
IC50 [3]: 6320 nM

Cc1cc(-c2[nH]nc(C(=O)NC3CCN(C4COC4)CC3)c2C(C)C)cn2ncnc12 [Example 70]
IC50 [1]: 1.46 nM
IC50 [2]: 0.58 nM
IC50 [3]: 6610 nM

Cc1cc(-c2[nH]nc(C(=O)NC3CCN(CCCC(F)(F)F)CC3)c2C(C)C)cn2ncnc12 [Example 71]
IC50 [1]: 19 nM
IC50 [2]: 6.92 nM
IC50 [3]: 5810 nM

Cc1cc(-c2[nH]nc(C(=O)NC3CCN(CC4CCOC4)CC3)c2C(C)C)cn2ncnc12 (stereo not drawn) [Example 72]
IC50 [1]: 4.75 nM
IC50 [2]: 1.23 nM
IC50 [3]: 7220 nM

Cc1cc(-c2[nH]nc(C(=O)NC3CCN(CC4CC4)CC3)c2C(C)C)cn2ncnc12 [Example 73]
IC50 [1]: 12.7 nM
IC50 [2]: 0.96 nM
IC50 [3]: 4280 nM

Cc1cc(-c2[nH]nc(C(=O)NC3CCN(CC(C)(C)C)CC3)c2C(C)C)cn2ncnc12 [Example 74]
IC50 [1]: 3.44 nM
IC50 [2]: 0.71 nM
IC50 [3]: 1910 nM

Cc1cc(-c2[nH]nc(C(=O)NC3CCN(CCC(C)(C)C)CC3)c2C(C)C)cn2ncnc12 [Example 75]
IC50 [1]: 7.55 nM
IC50 [2]: 0.89 nM
IC50 [3]: 3390 nM

Cc1cc(-c2[nH]nc(C(=O)NC3CCN(CCC(C)C)CC3)c2C(C)C)cn2ncnc12 [Example 76]
IC50 [1]: 2.62 nM
IC50 [2]: 0.9 nM
IC50 [3]: 1450 nM

Cc1cc(-c2[nH]nc(C(=O)NC3CCN(CC4CCOCC4)CC3)c2C(C)C)cn2ncnc12 [Example 77]
IC50 [1]: 21.5 nM
IC50 [2]: 2.03 nM
IC50 [3]: 3270 nM

Cc1noc(C)c1CN1CCC(NC(=O)c2n[nH]c(-c3cc(C)c4ncnn4c3)c2C(C)C)CC1 [Example 78]
IC50 [1]: 1.64 nM
IC50 [2]: 0.59 nM
IC50 [3]: 2870 nM

CCC(CC)CN1CCC(NC(=O)c2n[nH]c(-c3cc(C)c4ncnn4c3)c2C(C)C)CC1 [Example 79]
IC50 [1]: 9.23 nM
IC50 [2]: 2.29 nM
IC50 [3]: 4120 nM

Cc1cc(-c2[nH]nc(C(=O)N[C@H]3CC[C@H](N(C)C)CC3)c2C(C)C)cn2ncnc12 [Example 82]
IC50 [1]: 43.6 nM
IC50 [2]: 4.69 nM
IC50 [3]: > 50000 nM

Cc1cc(-c2[nH]nc(C(=O)NC3CCN(CCN(C)C)CC3)c2C(C)C)cn2ncnc12 [Example 83]
IC50 [1]: 238 nM
IC50 [2]: 6.33 nM
IC50 [3]: > 50000 nM

Cc1cc(-c2[nH]nc(C(=O)N[C@H]3CC[C@@H](N(C)C)CC3)c2C(C)C)cn2ncnc12 [Example 84]
IC50 [1]: 0.84 nM
IC50 [2]: 0.9 nM
IC50 [3]: 9110 nM

Cc1cc(-c2[nH]nc(C(=O)N[C@H]3CC[C@@H](NC(C)C)CC3)c2C(C)C)cn2ncnc12 [Example 85]
IC50 [1]: 17.5 nM
IC50 [2]: 2.66 nM
IC50 [3]: 6910 nM

Cc1cc(-c2[nH]nc(C(=O)N[C@H]3CC[C@@H](NC4COC4)CC3)c2C(C)C)cn2ncnc12 [Example 86]
IC50 [1]: 0.7 nM
IC50 [2]: 1.34 nM
IC50 [3]: 6420 nM

Cc1cc(-c2[nH]nc(C(=O)N[C@H]3CC[C@@H](NCC4CCOC4)CC3)c2C(C)C)cn2ncnc12 (stereo partly drawn) [Example 87]
IC50 [1]: 11.8 nM
IC50 [2]: 1.73 nM
IC50 [3]: 7790 nM

Cc1cc(-c2[nH]nc(C(=O)N[C@H]3CC[C@@H](NCCCC(F)(F)F)CC3)c2C(C)C)cn2ncnc12 [Example 88]
IC50 [1]: 1.84 nM
IC50 [2]: 0.81 nM
IC50 [3]: 4450 nM

Cc1cc(-c2[nH]nc(C(=O)N[C@H]3CC[C@@H](NCC(C)(C)C)CC3)c2C(C)C)cn2ncnc12 [Example 89]
IC50 [1]: 18.9 nM
IC50 [2]: 1.48 nM
IC50 [3]: 4100 nM

Cc1cc(-c2[nH]nc(C(=O)N[C@H]3CC[C@@H](N(CCC(C)(C)C)CCC(C)(C)C)CC3)c2C(C)C)cn2ncnc12 [Example 90]
IC50 [1]: 1.13 nM
IC50 [2]: 0.8 nM
IC50 [3]: 11100 nM
